# Test results reported in patent US20210308196A1, “COMPOSITIONS AND METHODS TO PROMOTE HOST DEFENSE AND STIMULATE, EXPAND, AND/OR RESET T CELL REPERTOIRES” (EVOLVE BIOSYSTEMS, INC., priority 2018, published 2021).
# Columns and labels:
# [1] = Microbial short chain fatty acids by gas chromatography; format: in vivo, human; settings: treatment group
# From the text: Microbial production of short chain fatty acids (SCFA): SCFA can modulate intestinal inflammation by regulating epithelial barrier function. Microbial short chain fatty acids (SCFA) are extracted by methods previously described and analyzed by gas chromatography HD and found to be elevated in the treatment group
# [2] = tested on: fatty acid binding proteins (FABPs) and glutathione S-transferase (α-GST); experiment: Urine FABPs and α-GST (MILLIPLEX MAP luminex assay); format: in vivo, human; settings: treatment group
# From the text: Glutathione S-transferases (α-GST) are enzymes present predominantly in liver, kidney and intestinal epithelial cells that are responsible for detoxification of intracellular toxins through conjugation to glutathione. In states of increased intestinal inflammation and permeability, plasma levels of (α-GST) are a peripheral marker of intestinal epithelial cell injury.
# [3] = Bacterial growth and oligosaccharide use in HMO, LNnT or FOS media (growth curves, HPLC); settings: compared to other Bifidobacterium and Lactobacillus strains
# Experimental: Little is known about the anti-inflammatory effects B. infantis-derived metabolites have on intestinal epithelial cells and how they might protect and maintain mucosal integrity in the infant gut. To investigate whether metabolites from B. infantis grown on HMO and synthetic HMOs can provide protective effects against pathogen-induced inflammation and maintain mucosal integrity compared to other commensal strains that have been previously characterized. B. infantis, B. breve, B. bifidum, and B. longum were grown in media containing pooled HMOs, synthetic Lacto-N-neotetraose (LNnT), or fructo-oligosaccharide (FOS, a readily available oligosaccharide commonly used in baby formulas). Four Lactobacillus plantarum strains were also grown in HMO, LNnT, and FOS media. Spent supernatant was collected and filtered after 48 hours of growth (when the bacteria reached the stationary phase) and evaluated for the remaining oligosaccharide concentration. […] After overnight incubation, cell supernatant was analyzed by ELISA for reductions in pro-inflammatory cytokines, including IL-8 and TNF-alpha. […]
# [4] = tested on: peanut extract allergy; experiment: Reversal of murine peanut allergy; format: in vivo, mouse; settings: previously sensitized animals, compared to control mice
# Experimental: Germ-free pups are weaned 3 weeks after birth and put on a polysaccharide-free diet. Mice are gavaged with a dysbiotic microbiome of Example 3 at Day 1. Mice receive intragastric gavage of peanut extract on day 1 and day 7 at 5 mg/mouse and then 25 mg/mouse at week 5 with 10 μg of Cholera toxin. Elicitation of reaction is performed at eight to ten weeks using intragastric gavage of 10 mg/mouse food antigen (e.g., peanut extract) with vehicle (PBS). At 10 weeks, mice of the test group are fed B. infantis, while control mice receive vehicle gavage only. All mice have access ad labium to LNnT-infused drinking water for a period of 21 days. The mice are re-challenged with the food antigen via intragastric gavage of 10 mg/mouse peanut extract with vehicle (PBS). Anaphylaxis symptoms are evaluated, and then mice are necropsied. Plasma samples are collected for evaluation of histamine and IgE concentrations. White blood cells are isolated for PBMC characterization and evaluation of regulatory T cell population expansion using flow cytometry specific for CD4, CD25, Foxp3, Helios, Neuropilin, CD8, CD44, CD62L, IFNgamma, IL-17.
# [5] = tested on: diabetes mellitus; experiment: Prevention of type 1 diabetes in NOD mice; format: in vivo, mouse; settings: compared to control mice
# From the text: Germ-free non-obese diabetic (NOD) mouse pups are weaned 3 weeks after birth and put on a polysaccharide-free diet that contains Vitamin A. As soon as the mouse pups are weaned, they are gavaged with a dysbiotic (no Bifidobacterium sp. and high proteobacteria) human infant microbiome at Day 1 of the experiment. The mice are divided into 4 groups: control, control plus LNnT, B. infantis, and B. infantis plus LNnT. Mice are given the composition for 21 days. All Groups receive B. infantis or a placebo every 3 days by gavage; the LNnT or placebo is added to the drinking water. Additional mice are divided into 2 groups These groups are gavaged with a healthy human infant microbiome (Bifidobacterium species) at day 21 of the experiment. The mice are then either fed placebo or LNnT in their drinking and receive vitamin A in their chow. Mice are monitored for diabetes with weekly tail vein blood glucose measurements and euthanized following two consecutive daily readings of >[…]. […] Plasma is evaluated for cytokines and innate immune factors. Fecal samples are taken every day and evaluated using qPCR and/or 16s and/or shotgun sequencing for microbial colonization. […]
substance,measurement,setting,value
Bifidobacterium longum subsp. infantis EVC001 [B. infantis EVC001],Microbial short chain fatty acids (SCFA),[1],elevated
same,Urine levels of FABPs and α-GST,[2],significantly reduced
same,Growth in HMOs (growth curves),[3],selective growth advantage
same,Inflammatory responses to the food antigen,[4],reduces
same,Incidence of the development of diabetes mellitus,[5],reduces
